Test results from patent US20240293439A1, “TREATMENT REGIMENS” (NuCana plc, priority 2017, published 2024).
Where “and” joins values, the source holds several entries; their conditions need not be identical. Equal entries are not always repeated. Entries after “also recorded” stand apart in the source; their conditions may differ.

Tests used:
[1] = in vivo
Procedure: The patients received NUC-3373, administered as a 30-minute to 2 hour intravenous injection on days 1, 8, 15 and 22 of a 28-day cycle regimen.
The cohorts treated to date received 125 mg/m^2, 250 mg/m^2, 500 mg/m^2 or 750 mg/m^2 NUC-3373 per administration.
Pharmacokinetic analysis of blood samples of the patients was then carried out.
Blood samples were collected on days 1 and 15 of a treatment cycle:
The blood samples should arrive in the lab within 2 hours of collection. Collect 8 ml of blood into CPT tubes (blood tubes should be centrifuged within 2 hours of blood collection). Remix the blood sample immediately prior to centrifugation by gently inverting the tube 8 to 10 times. Set centrifuge so that the start and finish is set to a slow acceleration (without break). Centrifuge at 18° C. for 20 minutes at 1,500 g. Remove sample from the centrifuge carefully. This will result in five layers: plasma (first); whitish cell (PBMC) layer [second]; polyester gel [third]; density solution [fourth] and, remaining granulocytes and RBCs [fifth]. Aspirate approximately half of the plasma without disturbing the cell layer. Collect the PBMC layer with a Pasteur Pipette and transfer to a 50 ml tube and add cold PBS (4° C.) to a final volume of 40 ml. Divide between two 50 ml tubes (20 ml per tube) and centrifuge for 5 minutes at 4° C. at 1,500 g. […]

[2] = target: T1, dihydropyrimidine dehydrogenase (DPD) (Homo sapiens, UniProt Q12882); details: catabolism in the liver; cited from earlier work
T1 construct: This is balanced by catabolism by dihydropyrimidine dehydrogenase (DPD) in the liver; host or cells: liver (of patients)
T1 sequence (Q12882 4-1025): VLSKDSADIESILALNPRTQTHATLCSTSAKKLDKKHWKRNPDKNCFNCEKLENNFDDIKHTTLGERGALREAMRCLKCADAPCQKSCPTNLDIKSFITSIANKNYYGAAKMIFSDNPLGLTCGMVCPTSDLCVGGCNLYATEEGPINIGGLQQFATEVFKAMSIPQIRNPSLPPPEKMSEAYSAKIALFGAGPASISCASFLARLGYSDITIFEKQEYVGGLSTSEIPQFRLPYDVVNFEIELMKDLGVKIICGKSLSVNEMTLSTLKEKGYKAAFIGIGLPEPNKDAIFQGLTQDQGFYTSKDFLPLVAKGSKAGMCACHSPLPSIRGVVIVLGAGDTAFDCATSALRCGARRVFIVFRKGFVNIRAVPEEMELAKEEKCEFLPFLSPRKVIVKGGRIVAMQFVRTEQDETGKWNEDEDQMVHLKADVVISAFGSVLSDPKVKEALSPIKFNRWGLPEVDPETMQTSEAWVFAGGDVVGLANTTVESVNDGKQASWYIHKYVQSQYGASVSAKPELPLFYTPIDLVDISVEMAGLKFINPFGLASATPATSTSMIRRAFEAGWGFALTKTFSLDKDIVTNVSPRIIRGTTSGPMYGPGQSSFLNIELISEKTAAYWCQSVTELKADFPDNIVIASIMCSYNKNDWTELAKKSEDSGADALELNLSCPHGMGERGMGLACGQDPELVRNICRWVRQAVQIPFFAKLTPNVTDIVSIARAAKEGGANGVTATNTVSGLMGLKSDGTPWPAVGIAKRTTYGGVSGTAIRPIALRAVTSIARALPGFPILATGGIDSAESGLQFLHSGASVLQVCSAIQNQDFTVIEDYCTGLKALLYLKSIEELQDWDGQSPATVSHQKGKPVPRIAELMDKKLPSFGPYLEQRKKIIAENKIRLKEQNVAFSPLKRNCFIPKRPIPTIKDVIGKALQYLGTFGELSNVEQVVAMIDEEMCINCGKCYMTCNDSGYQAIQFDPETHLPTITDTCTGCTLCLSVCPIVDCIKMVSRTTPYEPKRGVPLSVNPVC

[3] = tested on: thymidylate synthase (TS); assay: Intracellular dTMP, TS and dUMP levels in PBMCs of treated subjects (UPLC-MS, Western blot); format: in vivo, patients; details: for intracellular TS level and/or activity / intracellular dTMP level: cells (PBMCs) of treated subjects
Procedure: Remove sample from the centrifuge carefully.
(§1) Vortex-mix for 30 seconds. Leave sample on ice for 15 minutes.
UPLC-MS for was used to detect dTMP Western blot was used to detect TS.

[4] = comparison value; cited from earlier work
[5] = patients treated with 5FU; cited from earlier work
[6] = NuTide:301 clinical trial: occurrence of hand-foot syndrome; format: in vivo; details: 36 patients treated with NUC-3373, so far
Excerpt: (§2) All patients have metastatic spread.

[7] = NuTide:301 Phase 1 study: pharmacokinetic analysis of NUC-3373 in blood plasma; format: in vivo; details: human, iv, patients with advanced solid tumors, 125-750 mg/m^2, 1:1 mixture of S and R epimers
Procedure: as §2
NUC-3373 is presented as a single dose intravenous injection in a clear vial containing 250 mg/ml NUC-3373 in a solution of dimethylacetamide (DMA) and normal saline in the ratio of 80:20. The product is a clear yellow solution, free from visible particles.
In the study all patients were treated with a 1:1 mixture of NUC-3373 S and R epimers.
Centrifuge the 4 ml blood sample at 1,200 g at 18° C. for 10 minutes. Using a sterile plastic pipette (pastette), remove the resulting plasma and transfer ˜1.0 ml plasma into each of 2 cryovials (2 ml).

[8] = NuTide:301 study: detection of toxic byproducts FBAL and dhFU by UPLC-MS/MS after NUC-3373 administration; format: in vivo, patients; details: at the doses studied
Procedure: as §2, §1
UPLC-MS/MS was used to detect dhFU and FBAL

[9] = formal dog toxicology studies; cited from earlier work

O=c1[nH]c(=O)n([C@H]2C[C@H](O)[C@@H](COP(=O)(O)O)O2)cc1F [FUDR monophosphate]
half-life of intracellular FUDR monophosphate ([1]; human): 14.9 h
detectability of intracellular FUDR monophosphate at late time point [1]: still detectable

O=c1[nH]cc(F)c(=O)[nH]1 [5FU, 5-fluorouracil]
fraction of 5-fluorouracil broken down by DPD [2]: More than 85%
intracellular TS level and/or activity [3]: not observed
intracellular dTMP level [3]: not observed
plasma half-life of 5FU [4]: 8 to 14 min
patients developing hand-foot syndrome [5]: 30-60% and 40-60%

C[C@H](NP(=O)(OC[C@H]1O[C@@H](n2cc(F)c(=O)[nH]c2=O)CC1O)Oc1cccc2ccccc12)C(=O)OCc1ccccc1 (stereo partly drawn) [NUC-3373, 5-fluoro-2′-deoxyuridine-5′-O-[1-naphthyl (benzoxy-L-alaninyl)] phosphate]
patients who developed hand-foot syndrome [6]: none
half-life [7]: 582 min
dihydrofluorouracil (dhFU) detected following NUC-3373 administration [8]: undetectable
α-fluoro-β-alanine (FBAL) detected following NUC-3373 administration [8]: undetectable; also recorded: very low levels
intracellular TS level and/or activity [3]: deplete
intracellular dTMP level [3]: deplete
intracellular dUMP level ([3]; cells of treated subjects): increased accumulation
tolerability compared with 5FU [9]: significantly better tolerated than 5FU
